From US9051595B2, “Malt1 specific cleavage in assay and screening method” (University of Lausanne, priority 2007, dated 2015) come the findings set out here.

Type in all cases: cell-based, human
The subject of experiment [1] is Bcl10. As to the kind of experiment: Western blot for the faster migrating Bcl10 species (Bcl10 cleavage) in stimulated Jurkat cells pre-treated with inhibitors. The settings on record: for generation of the faster migrating Bcl10 species: Jurkat cells pre-incubated 30 min with inhibitor, stimulated with CD3/CD28, FIG. 2a; for anti-CD3/CD28-induced reduction in the apparent molecular weight of Bcl10: stimulated with anti-CD3 and anti-CD28, FIG. 5c. As to the method: For short term stimulations, cells were re-suspended at a density of 5×10^7 cells/mi in RPMI with 0.5% serum and pre-warmed for 10 min at 37° C. before addition of the stimulating agent.
T-cell stimulation was initiated by addition of PMA (10 ng/ml, Alexis) and ionomycin (1 μM, Calbiochem) (P/I) or a combination of anti-human CD3ε (10 μg/ml of OKT3, Apotech) and anti-CD28 (10 μg/ml of CD28.2, Immunotech) antibodies (CD3/CD28), immediately followed by addition of 5 μg/ml of cross-linking goat anti-mouse antibody (Southern Biotech).
Stimulations were stopped by addition of ice-cold Tris-NaCl buffer (20 mM Tris-HCl pH 7.4, 150 mM NaCl), and pelleted cells were lysed in Tris-NaCl lysis buffer containing 1% NP40, proteinase inhibitors (Complete, Roche) and phosphatase inhibitors (cocktails I and II, Sigma).
Postnuclear cell lysates were boiled with reducing SDS-sample buffer and analyzed on 16×20 cm gels by 15% SDS-PAGE according to Anderson, N. L. & Anderson, N. G. Analytical techniques for cell fractions. XXII. Two-dimensional analysis of serum and tissue proteins: multiple gradient-slab gel electrophoresis. Anal Biochem 85, 341-54 (1978).
Primary antibodies used are monoclonal mouse anti-phospho ERK (Sigma), rabbit anti-phospho-IκBα (5A5, Cell Signalling), rabbit anti-IκBα (Sigma), and rabbit anti-Bcl10 (H-197, Santa Cruz).
In a first approach, Jurkat cells were pre-incubated with either the pan-PKC inhibitor bisindolyl-maleimide VIII (BIM) or with Gö6976, an inhibitor of classical (Ca2+- and DAG-dependent) PKC isoforms, before stimulation with CD3/CD28 as indicated in Example 1. For pre-incubation, the cells were incubated with […] Gö6976 (Calbiochem) or 500 nM Bisindoleylmaleimide VIII acetate (Alexis), or solvent control for 30 min at 37° in RPMI with 0.5% serum directly prior to stimulation.
Cell lysis and western blots was done as in Example 1. The primary antibody for the experiment with VSV-tagged wt or VSV-tagged Carma1-DN and Carma1-coiled-coil construct is monoclonal mouse anti-VSV (P5D4, Sigma). For Carma1, a rabbit anti-Carma1 (AL220, Alexis) antibody was used.
(§1) For testing if the observed proteolytic activity is an indirect effect of Malt1 on other proteases, Jurkat cells were pretreated with the lysosomal or proteasomal inhibitors (NH4^+/leupeptin or MG132) or solvent control before stimulation with PMA and ionomycin, and postnuclear lysates were analyzed by Western blot as indicated.
(§2) In an analogue experiment, Jurkat cells were pretreated with the pan-caspase inhibitor zVAD-ink or solvent control, and stimulated with anti-CD3 and anti-CD28 antibodies or hexameric recombinant FasL for the indicated times. Postnuclear lysates were analyzed by Western blot with the indicated primary antibodies (FIG. 5c). A non-specific band (n.s.) of the anti-Bcl10 blot served as a loading control.

In a further experiment the test system is P-IκB. The experiment is described as follows: Western blot for P-IκB in PMA/ionomycin-stimulated Jurkat cells. The settings on record: Jurkat cells pretreated with inhibitor, PMA and ionomycin; FIG. 5b. Here is the method: as §1
(In western blotting, separated proteins are transferred to a membrane and probed.)

Another experiment has as its system caspase-8. As to the kind of experiment: FasL-induced caspase-8 activation in Jurkat cells (Western blot). The settings on record: Jurkat cells pretreated with inhibitor, hexameric recombinant FasL; FIG. 5c. As to the method:
as §2

In experiment [2] the test system is Bcl10. As to the kind of experiment: Activation-induced cleavage of Bcl10 in living Jurkat T cells and CTLs (Western blot). The settings on record: Jurkat T cells or CTLs pre-incubated 1 h with inhibitor, PMA and ionomycin; FIGS. 11b, c.
The test system of another experiment is NF-κB. As to the kind of experiment: anti-CD3/CD28-induced NF-κB activation in Jurkat T cells. The settings on record: FIG. 11d.
The test system of a further experiment is IL-2. As to the kind of experiment: IL-2 production of Jurkat cells stimulated with Raji cells and superantigen SEE. The settings on record: FIG. 11e. Here is the method:
To test the efficiency of inhibitors, Jurkat T cells stimulated or not with PMA and ionomycin for 20 min are mechanically lysed in cleavage assay buffer (see example 4) in the absence or presence of increasing concentrations of a irreversble cell permeable inhibitor peptide (z-VRPR-fink). This inhibitor was designed based on an optimal substrate cleavage sequence reported for the plant metacaspase AtMC9 (see ref. by Vercammen et al. 2006, J. Mol. Biol., 364(4):625-36). Malt1 protease activity is determined as described in example 4. […] Moreover, experiments are performed to assess the effect of the inhibitor on anti-CD3/CD28-induced NF-κB activation in Jurkat T cells, on IL-2 production of Jurkat cells stimulated by incubation with antigen-presenting cells (Raji cells in combination with the superantigen SEE) and on stimulation-induced adhesion to fibronectin (see example 7)).

The subject of the next experiment is Jurkat T cells. As to the kind of experiment: Stimulation-induced adhesion of Jurkat T cells to fibronectin. The settings on record: FIG. 11f. As to the method:
Central areas of tissue culture dishes (35-mm×10-mm) were coated for 90 min at 25° C. with 50 μl of fibronectin solution (40 μg/ml; Roche). Coated dishes were washed three times with PBS (without Ca2+ and Mg2+) and were blocked for 2 h with 1% (wt/vol) BSA in PBS. Cells were washed with Hank's balanced-salt solution (Gibco) and were left unstimulated or were stimulated at 37° C. for 30 min with MnCl2 (1 mM) or PMA (100 ng/ml), or for 5 min with anti-human CD3 and anti-CD28 (see example 1). Subsequently, cell suspensions were added to fibronectin-coated tissue culture dishes followed by incubation for additional 30 min at 37° C. Non-adherent cells were removed by washing of the dishes three to five times with Hank's balanced-salt solution. Adherent cells were counted in six separate fields with a microscope with an ocular counting reticule.
To test the efficiency of inhibitors, Jurkat T cells stimulated or not with PMA and ionomycin for 20 min are mechanically lysed in cleavage assay buffer (see example 4) in the absence or presence of increasing concentrations of a irreversble cell permeable inhibitor peptide (z-VRPR-fink). This inhibitor was designed based on an optimal substrate cleavage sequence reported for the plant metacaspase AtMC9 (see ref. by Vercammen et al. 2006, J. Mol. Biol., 364(4):625-36). Malt1 protease activity is determined as described in example 4. […]

“Also recorded” adds a separate entry of the source. Peptide text beside a SMILES is read from it. * marks the point of attachment. Cbz = O=C(OCc1ccccc1)*; CH2F = FC*

Turning to `Cn1cc(C2=C(c3cn(CCCN)c4ccccc34)C(=O)NC2=O)c2ccccc21` [BIM, bisindolyl-maleimide VIII], the “generation of the faster migrating Bcl10 species” value in the experiment on Bcl10 [1] is recorded as “prevented”.
Same read-out and setting: the same measure for `Cn1c2ccccc2c2c3c(c4c5ccccc5n(CCC#N)c4c21)CNC3=O` [Gö6976]: “not Gö6976 prevented”.
Take `CC(C)C[C@@H](C=O)NC(=O)[C@H](CC(C)C)NC(=O)[C@H](CC(C)C)NC(=O)OCc1ccccc1` [MG132] (Cbz-Leu-Leu-Leu-aldehyde): in the experiment with Bcl10 [1] (Jurkat cells pretreated with inhibitor, stimulated with PMA and ionomycin, FIG. 5a, 5b), the “generation of the faster migrating Bcl10 species corresponding to Bcl10 cleavage” value is “did not affect; also recorded: lack of an effect”. Moreover, the “stabilization of P-I[…]B” value with P-IκB was “efficiently stabilized”.
On to `COC(=O)C[C@H](NC(=O)[C@H](C)NC(=O)[C@@H](NC(=O)OCc1ccccc1)C(C)C)C(=O)CF` [zVAD-fmk] (Cbz-Val-Ala-Asp(OMe)-CH2F), for which the “anti-CD3/CD28-induced reduction in the apparent molecular weight of Bcl10” value in the experiment with Bcl10 [1] (Jurkat cells pretreated with inhibitor) is “no effect”; with Bcl10 [1] (Jurkat cells pretreated with inhibitor, listed as Z-VAD-fmk) it was “lack of an effect”. Besides, the “FasL-induced caspase-8 activation” value with caspase-8 is “potently inhibited”.
z-VRPR-fmk (Cbz-VRPR-CH2F): in the experiment with Bcl10 [2], the “activation-induced cleavage of Bcl10” value was “reduction”. For the same compound, the “capacity of T cells to activate NF-κB” value in the experiment on NF-κB is “impairs”. Moreover, the “capacity of T cells to produce IL-2” value in the experiment with IL-2 is “impairs”. Moreover, the “capacity of T cells to adhere to fibronectin upon T-cell activation” value in the experiment with Jurkat T cells is listed as “impairs”.
